Source: ChEMBL document CHEMBL5608163, “Structure modification of anoplin for fighting resistant bacteria” (Eur J Med Chem, 2024)
Values after ≈ are worked out from the molar mass of the structure shown.

Columns and labels:
Klebsiella pneumoniae = experiment: Antibacterial activity against Klebsiella pneumoniae ATCC 700603 assessed as reduction in bacterial growth incubated for 18 hrs by CLSI-based Mueller-Hinton broth dilution method; format: functional
Bacillus subtilis = experiment: Antibacterial activity against Bacillus subtilis ATCC 23857 assessed as reduction in bacterial growth incubated for 18 hrs by CLSI-based Mueller-Hinton broth dilution method; format: functional
Pseudomonas aeruginosa = experiment: Antibacterial activity against Pseudomonas aeruginosa ATCC 27853 assessed as reduction in bacterial growth incubated for 18 hrs by CLSI-based Mueller-Hinton broth dilution method; format: functional
Erythrocyte = experiment: Hemolytic activity in mouse erythrocyte assessed as hemolysis incubated for 1 hr by microplate reader analysis; format: toxicity, cell-based
[1] = tested on: Staphylococcus epidermidis; experiment: Antibacterial activity against Staphylococcus epidermidis ATCC 12228 assessed as reduction in bacterial growth incubated for 18 hrs by CLSI-based Mueller-Hinton broth dilution method; format: functional
Escherichia coli = experiment: Antibacterial activity against Escherichia coli ML-35 ATCC 43837 assessed as reduction in bacterial growth incubated for 18 hrs by CLSI-based Mueller-Hinton broth dilution method; format: functional
Acinetobacter baumannii = experiment: Antibacterial activity against Acinetobacter baumannii ATCC 19606 assessed as reduction in bacterial growth incubated for 18 hrs by CLSI-based Mueller-Hinton broth dilution method; format: functional
Staphylococcus aureus = experiment: Antimicrobial activity against Staphylococcus aureus ATCC 25923 assessed as reduction in microbial growth incubated for 18 hrs by CLSI-based Mueller-Hinton broth dilution method; format: functional

SMILES	MIC (Klebsiella pneumoniae) [µM]	MIC (Bacillus subtilis) [µM]	MIC (Pseudomonas aeruginosa) [µM]	HC10 (Erythrocyte) [µM]	MIC [1] [µM]	MIC (Escherichia coli) [µM]	MIC (Acinetobacter baumannii) [µM]	MIC (Staphylococcus aureus) [µM]
CCCCCCCCC(=O)NCCCC[C@@H](NC(=O)[C@@H](NC(=O)[C@H](CCCNC(=N)N)NC(=O)[C@@H](CCCCN)NC(=O)[C@H](CC(C)C)NC(=O)[C@H](CC(C)C)NC(=O)CN)[C@@H](C)CC)C(=O)N[C@H](C(=O)N[C@@H](CC(C)C)C(=O)N[C@@H](CC(C)C)C(N)=O)[C@@H](C)O	32 (≈ 41.4 µg/mL)	2 (≈ 2.59 µg/mL)	16 (≈ 20.7 µg/mL)	256	4 (≈ 5.18 µg/mL)	4 (≈ 5.18 µg/mL)	8 (≈ 10.4 µg/mL)	8
CCCCCCCCCCC(=O)NCCCC[C@@H](NC(=O)[C@@H](NC(=O)[C@H](CCCNC(=N)N)NC(=O)[C@@H](CCCCN)NC(=O)[C@H](CC(C)C)NC(=O)[C@H](CC(C)C)NC(=O)CN)[C@@H](C)CC)C(=O)N[C@H](C(=O)N[C@@H](CC(C)C)C(=O)N[C@@H](CC(C)C)C(N)=O)[C@@H](C)O	8 (≈ 10.6 µg/mL)	2 (≈ 2.64 µg/mL)	4 (≈ 5.29 µg/mL)	128	4 (≈ 5.29 µg/mL)	4 (≈ 5.29 µg/mL)	4 (≈ 5.29 µg/mL)	8
CCCCCCCCCCC(=O)NCCCC[C@@H](NC(=O)[C@H](CC(C)C)NC(=O)[C@H](CC(C)C)NC(=O)CN)C(=O)N[C@@H](CCCNC(=N)N)C(=O)N[C@H](C(=O)N[C@H](CCCCN)C(=O)N[C@H](C(=O)N[C@@H](CC(C)C)C(=O)N[C@@H](CC(C)C)C(N)=O)[C@@H](C)O)[C@@H](C)CC	32 (≈ 42.3 µg/mL)	4 (≈ 5.29 µg/mL)	8 (≈ 10.6 µg/mL)	256	2 (≈ 2.64 µg/mL)	8 (≈ 10.6 µg/mL)	16 (≈ 21.1 µg/mL)	8
CCCCC(=O)NCCCC[C@@H](NC(=O)[C@H](CC(C)C)NC(=O)[C@H](CC(C)C)NC(=O)CN)C(=O)N[C@@H](CCCNC(=N)N)C(=O)N[C@H](C(=O)N[C@H](CCCCN)C(=O)N[C@H](C(=O)N[C@@H](CC(C)C)C(=O)N[C@@H](CC(C)C)C(N)=O)[C@@H](C)O)[C@@H](C)CC	> 128	> 128	> 128	> 256	> 128	> 128	> 128	> 128
CCCCC(=O)NCCCC[C@@H](NC(=O)[C@@H](NC(=O)[C@H](CCCNC(=N)N)NC(=O)[C@@H](CCCCN)NC(=O)[C@H](CC(C)C)NC(=O)[C@H](CC(C)C)NC(=O)CN)[C@@H](C)CC)C(=O)N[C@H](C(=O)N[C@@H](CC(C)C)C(=O)N[C@@H](CC(C)C)C(N)=O)[C@@H](C)O	> 128	64 (≈ 79.2 µg/mL)	64 (≈ 79.2 µg/mL)	> 256	128 (≈ 158 µg/mL)	128 (≈ 158 µg/mL)	> 128	> 128
CCCCCCC(=O)NCCCC[C@@H](NC(=O)[C@@H](NC(=O)[C@H](CCCNC(=N)N)NC(=O)[C@@H](CCCCN)NC(=O)[C@H](CC(C)C)NC(=O)[C@H](CC(C)C)NC(=O)CN)[C@@H](C)CC)C(=O)N[C@H](C(=O)N[C@@H](CC(C)C)C(=O)N[C@@H](CC(C)C)C(N)=O)[C@@H](C)O	128 (≈ 162 µg/mL)	8 (≈ 10.1 µg/mL)	32 (≈ 40.5 µg/mL)	256	16 (≈ 20.3 µg/mL)	32 (≈ 40.5 µg/mL)	32 (≈ 40.5 µg/mL)	128
CCCCCCCCC(=O)NCCCC[C@@H](NC(=O)[C@H](CC(C)C)NC(=O)[C@H](CC(C)C)NC(=O)CN)C(=O)N[C@@H](CCCNC(=N)N)C(=O)N[C@H](C(=O)N[C@H](CCCCN)C(=O)N[C@H](C(=O)N[C@@H](CC(C)C)C(=O)N[C@@H](CC(C)C)C(N)=O)[C@@H](C)O)[C@@H](C)CC	128 (≈ 166 µg/mL)	4 (≈ 5.18 µg/mL)	32 (≈ 41.4 µg/mL)	> 256	8 (≈ 10.4 µg/mL)	32 (≈ 41.4 µg/mL)	32 (≈ 41.4 µg/mL)	16
CCCCCCCCCCCCC(=O)NCCCC[C@@H](NC(=O)[C@H](CC(C)C)NC(=O)[C@H](CC(C)C)NC(=O)CN)C(=O)N[C@@H](CCCNC(=N)N)C(=O)N[C@H](C(=O)N[C@H](CCCCN)C(=O)N[C@H](C(=O)N[C@@H](CC(C)C)C(=O)N[C@@H](CC(C)C)C(N)=O)[C@@H](C)O)[C@@H](C)CC	8 (≈ 10.8 µg/mL)	2 (≈ 2.7 µg/mL)	4 (≈ 5.4 µg/mL)	32	4 (≈ 5.4 µg/mL)	4 (≈ 5.4 µg/mL)	4 (≈ 5.4 µg/mL)	4
CCCCCCCCCCCCCCC(=O)NCCCC[C@@H](NC(=O)[C@H](CC(C)C)NC(=O)[C@H](CC(C)C)NC(=O)CN)C(=O)N[C@@H](CCCNC(=N)N)C(=O)N[C@H](C(=O)N[C@H](CCCCN)C(=O)N[C@H](C(=O)N[C@@H](CC(C)C)C(=O)N[C@@H](CC(C)C)C(N)=O)[C@@H](C)O)[C@@H](C)CC	32 (≈ 44.1 µg/mL)	4 (≈ 5.51 µg/mL)	16 (≈ 22 µg/mL)	32	4 (≈ 5.51 µg/mL)	8 (≈ 11 µg/mL)	8 (≈ 11 µg/mL)	8
CCCCCCCCCCCCCCCCC(=O)NCCCC[C@@H](NC(=O)[C@@H](NC(=O)[C@H](CCCNC(=N)N)NC(=O)[C@@H](CCCCN)NC(=O)[C@H](CC(C)C)NC(=O)[C@H](CC(C)C)NC(=O)CN)[C@@H](C)CC)C(=O)N[C@H](C(=O)N[C@@H](CC(C)C)C(=O)N[C@@H](CC(C)C)C(N)=O)[C@@H](C)O	64 (≈ 90 µg/mL)	16 (≈ 22.5 µg/mL)	64 (≈ 90 µg/mL)	16	32 (≈ 45 µg/mL)	64 (≈ 90 µg/mL)	16 (≈ 22.5 µg/mL)	64
CCCCCCCCCCCCCCC(=O)NCCCC[C@@H](NC(=O)[C@@H](NC(=O)[C@H](CCCNC(=N)N)NC(=O)[C@@H](CCCCN)NC(=O)[C@H](CC(C)C)NC(=O)[C@H](CC(C)C)NC(=O)CN)[C@@H](C)CC)C(=O)N[C@H](C(=O)N[C@@H](CC(C)C)C(=O)N[C@@H](CC(C)C)C(N)=O)[C@@H](C)O	32 (≈ 44.1 µg/mL)	8 (≈ 11 µg/mL)	32 (≈ 44.1 µg/mL)	16	4 (≈ 5.51 µg/mL)	64 (≈ 88.2 µg/mL)	8 (≈ 11 µg/mL)	16
CCCCCCC(=O)NCCCC[C@@H](NC(=O)[C@H](CC(C)C)NC(=O)[C@H](CC(C)C)NC(=O)CN)C(=O)N[C@@H](CCCNC(=N)N)C(=O)N[C@H](C(=O)N[C@H](CCCCN)C(=O)N[C@H](C(=O)N[C@@H](CC(C)C)C(=O)N[C@@H](CC(C)C)C(N)=O)[C@@H](C)O)[C@@H](C)CC	> 128	32 (≈ 40.5 µg/mL)	64 (≈ 81 µg/mL)	> 256	128 (≈ 162 µg/mL)	> 128	> 128	> 128
CCCCCCCCCCCCCCCCC(=O)NCCCC[C@@H](NC(=O)[C@H](CC(C)C)NC(=O)[C@H](CC(C)C)NC(=O)CN)C(=O)N[C@@H](CCCNC(=N)N)C(=O)N[C@H](C(=O)N[C@H](CCCCN)C(=O)N[C@H](C(=O)N[C@@H](CC(C)C)C(=O)N[C@@H](CC(C)C)C(N)=O)[C@@H](C)O)[C@@H](C)CC	128 (≈ 180 µg/mL)	8 (≈ 11.2 µg/mL)	64 (≈ 90 µg/mL)	> 16	64 (≈ 90 µg/mL)	64 (≈ 90 µg/mL)	16 (≈ 22.5 µg/mL)	32
CCCCCCCCCCCCC(=O)NCCCC[C@@H](NC(=O)[C@@H](NC(=O)[C@H](CCCNC(=N)N)NC(=O)[C@@H](CCCCN)NC(=O)[C@H](CC(C)C)NC(=O)[C@H](CC(C)C)NC(=O)CN)[C@@H](C)CC)C(=O)N[C@H](C(=O)N[C@@H](CC(C)C)C(=O)N[C@@H](CC(C)C)C(N)=O)[C@@H](C)O	16 (≈ 21.6 µg/mL)	2 (≈ 2.7 µg/mL)	8 (≈ 10.8 µg/mL)	32	4 (≈ 5.4 µg/mL)	16 (≈ 21.6 µg/mL)	4 (≈ 5.4 µg/mL)	4
